Experiments:
[1] = biological target: JAK2 (recombinant purified GST-tagged catalytic domain) (Homo sapiens (Human), UniProt O60674); test: Jak Biochemical HTRF Assay (JAK2); details: [ATP] 8.5 μM
[2] = biological target: JAK1 (recombinant purified GST-tagged catalytic domain) (Homo sapiens (Human), UniProt P23458); test: Jak Biochemical HTRF Assay (JAK1); details: [ATP] 31.8 μM
Method in brief: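 Read-out is the 665/615 nm time-resolved FRET ratio from Eu-pY20 antibody and streptavidin-Dylight 650 bound to phosphorylated biotin-peptide. Reactions ran 120 min at room temperature after ATP start. Inhibition normalized to untreated controls gave IC50 via 4-parameter fit.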

Sequence of JAK1 (recombinant purified GST-tagged catalytic domain) (P23458 875-1153): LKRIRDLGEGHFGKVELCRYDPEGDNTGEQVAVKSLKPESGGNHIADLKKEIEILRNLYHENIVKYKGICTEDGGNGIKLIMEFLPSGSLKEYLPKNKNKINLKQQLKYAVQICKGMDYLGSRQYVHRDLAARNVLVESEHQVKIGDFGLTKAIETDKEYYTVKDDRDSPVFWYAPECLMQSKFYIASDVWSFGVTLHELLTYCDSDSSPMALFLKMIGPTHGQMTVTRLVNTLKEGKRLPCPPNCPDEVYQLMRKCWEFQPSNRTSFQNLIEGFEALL
Sequence of JAK2 (recombinant purified GST-tagged catalytic domain) (O60674 849-1124): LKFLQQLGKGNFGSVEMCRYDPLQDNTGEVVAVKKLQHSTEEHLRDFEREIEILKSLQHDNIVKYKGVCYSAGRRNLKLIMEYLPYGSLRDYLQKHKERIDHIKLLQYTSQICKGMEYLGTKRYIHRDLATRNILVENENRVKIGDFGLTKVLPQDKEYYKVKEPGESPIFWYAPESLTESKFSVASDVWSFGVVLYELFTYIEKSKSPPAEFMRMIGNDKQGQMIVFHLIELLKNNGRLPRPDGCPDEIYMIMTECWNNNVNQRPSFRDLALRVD

Compound | IC50 [1] | IC50 [2]
CS(=O)(=O)c1ccc(Nc2nn([C@]3(CC#N)CCCOC3)c3cc[nH]c(=O)c23)cc1 [Example 5-31, (S)-2-(3-(3-((4-(methylsulfonyl)phenyl)amino)-4-oxo-4,5-dihydro-1H-pyrazolo [4,3-c]pyridin-1-yl)tetrahydro-2H-pyran-3-yl)acetonitrile] | 1.64 nM | 0.26 nM
Cc1cc(Nc2nn(C3(CC#N)CCN(c4cc(C(F)(F)F)ccn4)CC3)c3cc[nH]c(=O)c23)ccc1C(=O)N1CCSCC1 [Example 16-1, 2-(4-(3-(3-methyl-4-(thiomorpholine-4-carbonyl)phenylamino)-4-oxo-4,5-dihydropyrazolo[4,3-c]pyridin-1-yl)-1-(4-(trifluoromethyl)pyridin-2-yl)piperidin-4-yl)acetonitrile] | 3.06 nM | 2.77 nM
CN(C)S(=O)(=O)c1ccc(Nc2nn(C3(CC#N)CCN(Cc4ccc(F)cc4)CC3)c3cc[nH]c(=O)c23)cc1 [Example 8-7, 4-({1-[4-(cyanomethyl)-1-(4-fluorobenzyl)piperidin-4-yl]-4-oxo-4,5-dihydro-1H-pyrazolo[4,3-c]pyridin-3-yl}amino)-N,N-dimethylbenzenesulfonamide] | 0.63 nM | 0.21 nM
CC(C)Oc1ccc(CN2CCC(CC#N)(n3nc(Nc4ccc(S(=O)(=O)N(C)C)cc4)c4c(=O)[nH]ccc43)CC2)cc1 [Example 8-6, 4-[(1-{4-(cyanomethyl)-1-[4-(1methylethoxy)benzyl]piperidin-4-yl}-4-oxo-4,5-dihydro-1H-pyrazolo[4,3-c]pyridin-3-yl)amino]-N,N-dimethylbenzenesulfonamide] | 12.4 nM | 1.94 nM
CC(C)(C)N1Cc2cc(Nc3nn(C4(CC#N)CCOCC4)c4cc[nH]c(=O)c34)ccc2S1(=O)=O [Example 5-251, 2-(4-(3-((2-(tert-butyl)-1,1-dioxido-2,3-dihydrobenzo[d]isothiazol-5-yl)amino)-4-oxo-4,5-dihydro-1H-pyrazolo[4,3-c]pyridin-1-yl)tetrahydro-2H-pyran-4-yl)acetonitrile] | 0.78 nM | 0.06 nM
CN(C(C)(C)C)S(=O)(=O)c1ccc(Nc2nn(C3(CC#N)CCN(C(=O)C(C)(F)F)CC3)c3cc[nH]c(=O)c23)cc1 [Example 5-58, N-(tert-butyl)-4-((1-(4-(cyanomethyl)-1-(2,2-difluoropropanoyl)piperidin-4-yl)-4-oxo-4,5-dihydro-1H-pyrazolo[4,3-c]pyridin-3-yl)amino)-N-methylbenzenesulfonamide] | 0.18 nM | 0.14 nM
CC1(C)CCCC1S(=O)(=O)c1ccc(Nc2nn([C@]3(CC#N)CCCOC3)c3cc[nH]c(=O)c23)cc1 (stereo partly drawn) [Example 5-202, {(3S)-3-[3-({4-[(2,2-dimethylcyclopentyl)sulfonyl]phenyl}amino)-4-oxo-4,5-dihydro-1H-pyrazolo[4,3-c]pyridin-1-yl]tetrahydro-2H-pyran-3-yl}acetonitrile] | 1.2 nM | 0.39 nM
N#CCC1(n2nc(Nc3ccc(C(F)(F)F)cc3)c3c(=O)[nH]ccc32)CCC2(CC1)OCCO2 [Example 5-83, 2-(8-(4-oxo-3-((4-(trifluoromethyl)phenyl)amino)-4,5-dihydro-1H-pyrazolo[4,3-c]pyridin-1-yl)-1,4-dioxaspiro[4.5]decan-8-yl)acetonitrile] | 21.6 nM | 1.97 nM
CC(C)S(=O)(=O)c1ccc(Nc2nn(C3(CC#N)CCN(C(=O)C(C)(F)F)CC3)c3cc[nH]c(=O)c23)cc1 [Example 5-57, 2-(1-(2,2-difluoropropanoyl)-4-(3-((4-(isopropylsulfonyl)phenyl)amino)-4-oxo-4,5-dihydro-1H-pyrazolo[4,3-c]pyridin-1-yl)piperidin-4-yl)acetonitrile] | 0.13 nM | 0.08 nM
CC(c1ccc(Nc2nn([C@]3(CC#N)CCCOC3)c3cc[nH]c(=O)c23)cc1)N1CCCC1 (single isomer, unassigned) [Example 5-200, {(3S)-3-[4-oxo-3-({4-[(1S or 1R)-1-pyrrolidin-1-ylethyl]phenyl}amino)-4,5-dihydro-1H-pyrazolo[4,3-c]pyridin-1-yl]tetrahydro-2H-pyran-3-yl}acetonitrile] | 0.53 nM | 1.15 nM
COC(=O)N1CCC(CC#N)(n2nc(Nc3ccc(C#N)cc3)c3c(=O)[nH]ccc32)CC1 [Example 5-145, methyl 4-(cyanomethyl)-4-(3-((4-cyanophenyl)amino)-4-oxo-4,5-dihydro-1H-pyrazolo[4,3-c]pyridin-1-yl)piperidine-1-carboxylate] | 1.22 nM | 0.19 nM
CN(C)S(=O)(=O)c1ccc(Nc2nn(C3(CC#N)CCN(C(=O)OC4CCSCC4)CC3)c3cc[nH]c(=O)c23)cc1 [Example 11-4, tetrahydro-2H-thiopyran-4-yl 4-(cyanomethyl)-4-(3-((4-(N,N-dimethylsulfamoyl)phenyl)amino)-4-oxo-4,5-dihydro-1H-pyrazolo[4,3-c]pyridin-1-yl)piperidine-1-carboxylate] | 1.45 nM | 0.27 nM
CO[C@@H]1CCN(C(=O)c2ccc(Nc3nn([C@]4(CC#N)CCCOC4)c4cc[nH]c(=O)c34)cc2C)C1 [Example 5-117, 2-((S)-3-(3-((4-((R)-3-methoxypyrrolidine-1-carbonyl)-3-methylphenyl)amino)-4-oxo-4,5-dihydro-1H-pyrazolo[4,3-c]pyridin-1-yl)tetrahydro-2H-pyran-3-yl)acetonitrile] | 1.36 nM | 0.45 nM
CC(C)(C)OC(=O)N1CCC(CC#N)(n2nc(Nc3ccc(S(=O)(=O)N4CCCCC4)cc3)c3c(=O)[nH]ccc32)CC1 [Example 5-293, tert-butyl 4-(cyanomethyl)-4-(4-oxo-3-((4-(piperidin-1-ylsulfonyl)phenyl)amino)-4,5-dihydro-1H-pyrazolo[4,3-c]pyridin-1-yl)piperidine-1-carboxylate] | 0.68 nM | 0.43 nM
Cc1cc(Nc2nn(C3(CC#N)CCN(C(=O)OC(C)(C)C)CC3)c3cc[nH]c(=O)c23)ccc1C(=O)N1CCC(F)(F)CC1 [Example 21-11, tert-butyl 4-(cyanomethyl)-4-(3-((4-(4,4-difluoropiperidine-1-carbonyl)-3-methylphenyl)amino)-4-oxo-4,5-dihydro-1H-pyrazolo[4,3-c]pyridin-1-yl)piperidine-1-carboxylate] | 0.38 nM | 0.43 nM

Now from value to compound:

IC50 [1] | IC50 [2] | Compound
0.26 nM | 0.14 nM | CC(C)(C)OC(=O)[C@@H]1CC[C@@](CC#N)(n2nc(Nc3ccc4c(c3)CN(C(C)(C)C)C4=O)c3c(=O)[nH]ccc32)CO1 [Example 5-100, (2S,5S)-tert-butyl 5-(3-((2-(tert-butyl)-1-oxoisoindolin-5-yl)amino)-4-oxo-4,5-dihydro-1H-pyrazolo[4,3-c]pyridin-1-yl)-5-(cyanomethyl)tetrahydro-2H-pyran-2-carboxylate]
84.6 nM | 4.14 nM | N#CCC1(n2nc(Nc3ccc(C(F)(F)F)cc3)c3c(=O)[nH]ccc32)CCC(O)CC1 (stereo not drawn) [Example 18-5, (cis and trans) 2-(4-hydroxy-1-(4-oxo-3-((4-(trifluoromethyl)phenyl)amino)-4,5-dihydro-1H-pyrazolo[4,3-c]pyridin-1-yl)cyclohexyl)acetonitrile]
0.57 nM | 0.19 nM | CC(C)(C)OC(=O)[C@@H]1CC[C@@](CC#N)(n2nc(Nc3ccc([C@H](N)C(F)(F)F)cc3)c3c(=O)[nH]ccc32)CO1 (single isomer, unassigned) [Example 5-53, (2S,5S)-tert-butyl 5-(3-((4-((S or R)-1-amino-2,2,2-trifluoroethyl)phenyl)amino)-4-oxo-4,5-dihydro-1H-pyrazolo[4,3-c]pyridin-1-yl)-5-(cyanomethyl) tetrahydro-2H-pyran-2-carboxylate]
1 nM | 0.46 nM | CC(C)(C)OC(=O)[C@@H]1CC[C@@](CC#N)(n2nc(Nc3ccc4c(c3)CC(C)(C)C4(O)C(F)(F)F)c3c(=O)[nH]ccc32)CO1 (single isomer, unassigned) [Example 5-165, (2S,5S)-tert-butyl 5-(cyanomethyl)-5-(3-(((S or R)-1-hydroxy-2,2-dimethyl-1-(trifluoromethyl)-2,3-dihydro-1H-inden-5-yl)amino)-4-oxo-4,5-dihydro-1H-pyrazolo[4,3-c]pyridin-1-yl)tetrahydro-2H-pyran-2-carboxylate]
211 nM | 16.1 nM | CN(C)[C@H]1CC[C@@](CC#N)(n2nc(Nc3ccc4c(c3)CN(C(C)(C)C)S4(=O)=O)c3c(=O)[nH]ccc32)CC1 [Example 18-38, Cis 2-(1-(3-((2-(tert-butyl)-1,1-dioxido-2,3-dihydrobenzo[d]isothiazol-5-yl)amino)-4-oxo-4,5-dihydro-1H-pyrazolo[4,3-c]pyridin-1-yl)-4-(dimethylamino)cyclohexyl)acetonitrile]
0.16 nM | 0.15 nM | Cc1cc(Nc2nn([C@]3(CC#N)CC[C@@H](C(=O)OC(C)(C)C)OC3)c3cc[nH]c(=O)c23)ccc1C(=O)N1CCOCC1C (single isomer, unassigned) [Example 20-8, (2S,5S)-tert-butyl 5-(cyanomethyl)-5-(3-((3-methyl-4-((S or R)-3-methylmorpholine-4-carbonyl)phenyl)amino)-4-oxo-4,5-dihydro-1H-pyrazolo[4,3-c]pyridin-1-yl)tetrahydro-2H-pyran-2-carboxylate]
108 nM | 7.27 nM | CC(C)(C)OC(=O)N1CC(CC#N)(n2nc(Nc3ccc(S(=O)(=O)C(F)(F)F)cc3)c3c(=O)[nH]ccc32)C1 [Example 5-47, tert-butyl 3-(cyanomethyl)-3-[4-oxo-3-({4-[(trifluoromethyl)sulfonyl]phenyl}amino)-4,5-dihydro-1H-pyrazolo[4,3-c]pyridin-1-yl]azetidine-1-carboxylate]
